Here are results for 28 molecules from patent US20260028365A1 (BIOGEN MA INC., priority 2022, published 2026).

Counter-ions that a name gives are not always drawn. Like-named read-outs stand apart in the source and are kept apart here. A value given as a limit tells only on which side of the number the result lay.

One may read the IC50 as the concentration needed to halve the response being measured. A low value points to inhibition by little substance.

One experiment deals with JH2 domain of human Tyk2 (Homo sapiens (Human), UniProt P29597). The experiment can be described thus: JH2 Biochemical Assay (TR-FRET probe displacement). Type of experiment: binding. In general terms: TR-FRET usually uses a lanthanide donor and a delayed reading to cut background.
JH2 domain of human Tyk2, sequence (P29597 575-876): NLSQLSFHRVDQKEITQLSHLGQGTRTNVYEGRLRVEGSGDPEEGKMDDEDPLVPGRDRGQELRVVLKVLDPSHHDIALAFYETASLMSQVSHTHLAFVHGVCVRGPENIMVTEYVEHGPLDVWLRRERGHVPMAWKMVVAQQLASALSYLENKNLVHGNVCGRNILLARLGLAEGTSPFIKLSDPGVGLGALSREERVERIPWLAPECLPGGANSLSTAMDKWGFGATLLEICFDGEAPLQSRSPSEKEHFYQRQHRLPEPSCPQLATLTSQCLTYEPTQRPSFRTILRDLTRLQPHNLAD
The target in another experiment is Tyk2 (Homo sapiens (Human), UniProt P29597). The experiment can be described thus: pSTAT4 Cell Assay (MSD, NK92 cells). Type of experiment: cell-based.
Tyk2, sequence (P29597 whole entry, the tested form may be a part): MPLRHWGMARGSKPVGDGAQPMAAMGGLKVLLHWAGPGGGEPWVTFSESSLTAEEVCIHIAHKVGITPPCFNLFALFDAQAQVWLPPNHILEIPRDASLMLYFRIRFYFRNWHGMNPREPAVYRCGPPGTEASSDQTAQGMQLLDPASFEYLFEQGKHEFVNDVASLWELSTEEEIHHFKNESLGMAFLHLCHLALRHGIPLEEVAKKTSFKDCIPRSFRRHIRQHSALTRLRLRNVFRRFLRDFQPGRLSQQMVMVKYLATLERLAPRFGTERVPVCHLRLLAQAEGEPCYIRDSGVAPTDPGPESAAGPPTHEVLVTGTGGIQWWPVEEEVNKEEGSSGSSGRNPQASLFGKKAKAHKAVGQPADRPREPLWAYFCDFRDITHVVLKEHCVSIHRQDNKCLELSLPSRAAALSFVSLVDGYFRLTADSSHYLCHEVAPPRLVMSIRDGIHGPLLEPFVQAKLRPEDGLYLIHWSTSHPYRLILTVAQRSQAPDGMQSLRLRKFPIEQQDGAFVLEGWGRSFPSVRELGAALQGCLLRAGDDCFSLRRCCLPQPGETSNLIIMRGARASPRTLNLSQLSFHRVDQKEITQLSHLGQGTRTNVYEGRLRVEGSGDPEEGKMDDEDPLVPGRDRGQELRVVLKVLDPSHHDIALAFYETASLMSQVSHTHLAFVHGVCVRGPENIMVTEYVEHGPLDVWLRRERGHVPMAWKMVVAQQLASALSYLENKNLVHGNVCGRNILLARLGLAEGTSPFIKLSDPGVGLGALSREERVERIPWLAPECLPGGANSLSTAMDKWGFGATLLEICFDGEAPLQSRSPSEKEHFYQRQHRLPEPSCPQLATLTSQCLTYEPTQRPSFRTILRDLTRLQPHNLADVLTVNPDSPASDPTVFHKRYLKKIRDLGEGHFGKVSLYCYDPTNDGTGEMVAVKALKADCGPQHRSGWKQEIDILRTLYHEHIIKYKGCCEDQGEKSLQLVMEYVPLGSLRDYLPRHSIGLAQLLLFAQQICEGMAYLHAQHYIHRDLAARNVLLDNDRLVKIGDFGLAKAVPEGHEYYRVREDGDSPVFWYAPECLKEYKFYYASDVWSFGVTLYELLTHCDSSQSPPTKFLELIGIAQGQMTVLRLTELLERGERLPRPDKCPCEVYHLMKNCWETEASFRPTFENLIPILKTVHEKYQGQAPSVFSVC
The mark [1] stands for this setting: JH2 domain of human Tyk2, TR-FRET probe displacement.
The mark [2] stands for this setting: TR-FRET probe displacement, JH2 domain of human Tyk2.
Where [3] appears, read: TR-FRET probe displacement, JH2 domain.

With `CC(=O)Nc1cc(Nc2cc(C)nc(C(C)(F)F)n2)c(OCC2CCCN2C)cn1` (centres unmarked) [Example 479, N-(4-((2-(1,1-difluoroethyl)-6-methylpyrimidin-4-yl)amino)-5-((1-methylpyrrolidin-2-yl)methoxy)pyridin-2-yl)acetamide], the IC50 at JH2 domain of human Tyk2 (setting [1]) is not above 10 nM; on Tyk2 (MSD), 100 to 1000 nM.
As to `CC(=O)Nc1cc(Nc2cc(C)nc(C(C)(F)F)n2)c(OCC2CC(=O)N(C(C)C)C2)cn1` (centres unmarked) [Example 510, N-(4-((2-(1,1-difluoroethyl)-6-methylpyrimidin-4-yl)amino)-5-((1-isopropyl-5-oxopyrrolidin-3-yl)methoxy)pyridin-2-yl)acetamide], the IC50 on JH2 domain of human Tyk2 (setting [1]) is not above 10 nM; on Tyk2 (MSD), 100 to 1000 nM.
`CC(=O)Nc1cc(Nc2cccc(C(C)(F)F)n2)c(OCCN2CCCC2)cn1` [Example 64, N-(4-((6-(1,1-difluoroethyl)pyridin-2-yl)amino)-5-(2-(pyrrolidin-1-yl)ethoxy)pyridin-2-yl)acetamide]: the IC50 was not above 10 nM at JH2 domain of human Tyk2 (setting [2]) and 10 to 100 nM at Tyk2 (MSD).
Consider `COc1nccc(-c2cnc(NC(C)=O)cc2Nc2ccnc(C(C)(F)F)n2)n1` [Example 178, N-(4-((2-(1,1-difluoroethyl)pyrimidin-4-yl)amino)-5-(2-methoxypyrimidin-4-yl)pyridin-2-yl)acetamide], for which the IC50 on JH2 domain of human Tyk2 (setting [2]) and against Tyk2 (MSD) was not above 10 nM each time.
As to `COc1ccc(-c2cc(Nc3cc(NC(C)=O)ncc3OC)nc(C(C)(F)F)n2)cn1` [Example 391, N-(4-((2-(1,1-difluoroethyl)-6-(6-methoxypyridin-3-yl)pyrimidin-4-yl)amino)-5-methoxypyridin-2-yl)acetamide], the IC50 is not above 10 nM at JH2 domain of human Tyk2 (setting [1]) and 10 to 100 nM on Tyk2 (MSD).
For `CC(=O)Nc1cc(Nc2cc(C)nc(C(C)(F)F)n2)c(-c2cc3n(n2)CCN(C(C)=O)C3)cn1` [Example 222, N-(5-(5-acetyl-4,5,6,7-tetrahydropyrazolo[1,5-a]pyrazin-2-yl)-4-((2-(1,1-difluoroethyl)-6-methylpyrimidin-4-yl)amino)pyridin-2-yl)acetamide trifluoroacetate], the IC50 on JH2 domain of human Tyk2 (setting [2]) and on Tyk2 (MSD) was not above 10 nM each time.
Regarding `CCc1cc(Nc2cc(NC(C)=O)ncc2-c2ccc(=O)n(C)n2)nc(C(C)(F)F)n1` [Example 831, N-(4-((2-(1,1-difluoroethyl)-6-ethylpyrimidin-4-yl)amino)-5-(1-methyl-6-oxo-1,6-dihydropyridazin-3-yl)pyridin-2-yl)acetamide], the IC50 on JH2 domain of human Tyk2 (setting [3]) and against Tyk2 was not above 10 nM in each case.
Consider `COc1nc(C)cc(-c2cnc(NC(C)=O)cc2Nc2cc(C)nc(C(C)(F)F)n2)n1` [Example 156, N-(4-((2-(1,1-difluoroethyl)-6-methylpyrimidin-4-yl)amino)-5-(2-methoxy-6-methylpyrimidin-4-yl)pyridin-2-yl)acetamide], for which the IC50 on JH2 domain of human Tyk2 (setting [2]) and at Tyk2 (MSD) was not above 10 nM each time.
Consider `CC(=O)Nc1cc(Nc2cc(C)nc(C(C)(F)F)n2)c(-c2ccc(F)c(C#N)n2)cn1` [Example 633, N-(6-cyanO4′-((2-(1,1-difluoroethyl)-6-methylpyrimidin-4-yl)amino)-5-fluorO[2,3′-bipyridin]-6′-yl)acetamide], for which the IC50 at JH2 domain of human Tyk2 (setting [1]) and against Tyk2 (MSD) was not above 10 nM in each case.
Take `CC(=O)Nc1cc(Nc2cc(C)nc(C(C)(F)F)n2)c(-c2cnc(CN3CCN(C)CC3)cn2)cn1` [Example 792, N-(4-((2-(1,1-difluoroethyl)-6-methylpyrimidin-4-yl)amino)-5-(5-((4-methylpiperazin-1-yl)methyl)pyrazin-2-yl)pyridin-2-yl)acetamide]: the figures for the IC50 at JH2 domain of human Tyk2 (setting [3]) and against Tyk2 were not above 10 nM and 10 to 100 nM, respectively.
On to `CC(=O)Nc1cc(Nc2cc(C)nc(C(C)(F)F)n2)c(-c2cc(F)n(C)n2)cn1` [Example 814, N-(4-((2-(1,1-difluoroethyl)-6-methylpyrimidin-4-yl)amino)-5-(5-fluoro-1-methyl-1H-pyrazol-3-yl)pyridin-2-yl)acetamide], for which the IC50 at JH2 domain of human Tyk2 (setting [3]) and on Tyk2 was not above 10 nM throughout.
Regarding `CO[C@H]1CC[C@@H](Oc2cnc(NC(C)=O)cc2Nc2cc(C)nc(C(C)(F)F)n2)C1` [Example 513, N-(4-((2-(1,1-difluoroethyl)-6-methylpyrimidin-4-yl)amino)-5-(((1R,3S)-3-methoxycyclopentyl)oxy)pyridin-2-yl)acetamide], the IC50 is not above 10 nM on JH2 domain of human Tyk2 (setting [1]) and 10 to 100 nM at Tyk2 (MSD).
Turning to `CCn1ncc(-c2cnc(NC(C)=O)cc2Nc2ccnc(C(C)(F)F)n2)n1` [Example 709, N-(4-((2-(1,1-difluoroethyl)pyrimidin-4-yl)amino)-5-(2-ethyl-2H-1,2,3-triazol-4-yl)pyridin-2-yl)acetamide], the IC50 was not above 10 nM at JH2 domain of human Tyk2 (setting [1]) and 10 to 100 nM against Tyk2 (MSD).
For `CCc1nnc(-c2cnc(NC(C)=O)cc2Nc2ccnc(C(C)(F)F)n2)s1` [Example 714, N-(4-((2-(1,1-difluoroethyl)pyrimidin-4-yl)amino)-5-(5-ethyl-1,3,4-thiadiazol-2-yl)pyridin-2-yl)acetamide] the same measures were not above 10 nM and not above 10 nM.
Turning to `CC(=O)Nc1cc(Nc2ccnc(C(C)(F)F)n2)c(-c2ccc(CN3CCC4(COC4)C3)cn2)cn1` [Example 703, N-(5-((2-oxa-6-azaspiro[3.4]octan-6-yl)methyl)-4′-((2-(1,1-difluoroethyl)pyrimidin-4-yl)amino)-[2,3′-bipyridin]-6′-yl)acetamide], the IC50 at JH2 domain of human Tyk2 (setting [1]) and at Tyk2 (MSD) was not above 10 nM each time.
For the molecule `CC(=O)Nc1cc(Nc2ccnc(C(C)(F)F)n2)c(OC(C)C)cn1` [Example 8, N-(4-((2-(1,1-difluoroethyl)pyrimidin-4-yl)amino)-5-isopropoxypyridin-2-yl)acetamide], the IC50 is not above 10 nM on JH2 domain of human Tyk2 (setting [2]) and 100 to 1000 nM at Tyk2 (MSD).
For `CC(=O)Nc1cc(Nc2cc(C)nc(C(C)(F)F)n2)c(-c2ccn3nccc3n2)cn1` [Example 540, N-(4-((2-(1,1-difluoroethyl)-6-methylpyrimidin-4-yl)amino)-5-(pyrazolo[1,5-a]pyrimidin-5-yl)pyridin-2-yl)acetamide], the IC50 on JH2 domain of human Tyk2 (setting [1]) and at Tyk2 (MSD) was not above 10 nM each time.
Consider `CC(=O)Nc1cc(Nc2cc(C)nc(C(C)(F)F)n2)c(-c2cn3c(n2)OCC3)cn1` [Example 770, N-(4-((2-(1,1-difluoroethyl)-6-methylpyrimidin-4-yl)amino)-5-(2,3-dihydroimidazo[2,1-b]oxazol-6-yl)pyridin-2-yl)acetamide], for which the IC50 at JH2 domain of human Tyk2 (setting [3]) and against Tyk2 was not above 10 nM each time.
Consider `CC(=O)Nc1cc(Nc2cccc(C(C)(F)F)n2)c(-c2ccc(=O)n(C)n2)cn1` [Example 158, N-(4-((6-(1,1-difluoroethyl)pyridin-2-yl)amino)-5-(1-methyl-6-oxo-1,6-dihydropyridazin-3-yl)pyridin-2-yl)acetamide], for which the IC50 at JH2 domain of human Tyk2 (setting [2]) and at Tyk2 (MSD) was not above 10 nM throughout.
`COc1ccc(-c2cnc(NC(C)=O)cc2Nc2cc(C(C)C)nc(C(C)(F)F)n2)nn1` [Example 832, N-(4-((2-(1,1-difluoroethyl)-6-isopropylpyrimidin-4-yl)amino)-5-(6-methoxypyridazin-3-yl)pyridin-2-yl)acetamide]: the IC50 at JH2 domain of human Tyk2 (setting [3]) and at Tyk2 was not above 10 nM throughout.
Regarding `CC(=O)Nc1cc(Nc2cc(C)nc(C(C)(F)F)n2)c(OCC2CCO2)cn1` (centres unmarked) [Example 85, N-(4-((2-(1,1-difluoroethyl)-6-methylpyrimidin-4-yl)amino)-5-(oxetan-2-ylmethoxy)pyridin-2-yl)acetamide], the IC50 on JH2 domain of human Tyk2 (setting [2]) was not above 10 nM; against Tyk2 (MSD) it was 10 to 100 nM.
For the molecule `COC(C)(C)c1cnc(-c2cnc(NC(C)=O)cc2Nc2ccnc(C(C)(F)F)n2)cn1` [Example 896, N-(4-((2-(1,1-difluoroethyl)pyrimidin-4-yl)amino)-5-(5-(2-methoxypropan-2-yl)pyrazin-2-yl)pyridin-2-yl)acetamide], the IC50 at JH2 domain of human Tyk2 (setting [3]) is not above 10 nM; against Tyk2, 10 to 100 nM.
For the molecule `COc1cnc(NC(C)=O)cc1Nc1cc(-c2cc(F)c3nc(C)cn3c2)nc(C(C)(F)F)n1` [Example 398, N-(4-((2-(1,1-difluoroethyl)-6-(8-fluoro-2-methylimidazo[1,2-a]pyridin-6-yl)pyrimidin-4-yl)amino)-5-methoxypyridin-2-yl)acetamide], the values for the IC50 on JH2 domain of human Tyk2 (setting [1]) and at Tyk2 (MSD) were not above 10 nM and 10 to 100 nM, respectively.
`CC(=O)Nc1cc(Nc2cc(C)nc(C(C)(F)F)n2)c(OCC2CCC2)cn1` [Example 62, N-(5-(cyclobutylmethoxy)-4-((2-(1,1-difluoroethyl)-6-methylpyrimidin-4-yl)amino)pyridin-2-yl)acetamide]: the IC50 at JH2 domain of human Tyk2 (setting [2]) is not above 10 nM; against Tyk2 (MSD) it was 10 to 100 nM.
On to `CC(=O)Nc1cc(Nc2cc(C)nc(C(C)(F)F)n2)c(-c2cc(C(C)N(C)C)ccn2)cn1` (centres unmarked) [Example 743, N-(4′-((2-(1,1-difluoroethyl)-6-methylpyrimidin-4-yl)amino)-4-(1-(dimethylamino)ethyl)-[2,3′-bipyridin]-6′-yl)acetamide], for which the IC50 on JH2 domain of human Tyk2 (setting [1]) is not above 10 nM; at Tyk2 (MSD), 10 to 100 nM.
On to `CC(=O)Nc1cc(Nc2cc(C)nc(C(C)(F)F)n2)c(-c2cnn3c2OCCC3)cn1` [Example 535, N-(4-((2-(1,1-difluoroethyl)-6-methylpyrimidin-4-yl)amino)-5-(6,7-dihydrO5H-pyrazolo[5,1-b][1,3]oxazin-3-yl)pyridin-2-yl)acetamide], for which the IC50 at JH2 domain of human Tyk2 (setting [1]) is 10 to 100 nM; against Tyk2 (MSD), not below 1000 nM.
In the case of `COCCOc1cnc(NC(C)=O)cc1Nc1nc(C)cc(C(F)CF)n1` (centres unmarked) [Example 80, N-(4-((4-(1,2-difluoroethyl)-6-methylpyrimidin-2-yl)amino)-5-(2-methoxyethoxy)pyridin-2-yl)acetamide], the IC50 on JH2 domain of human Tyk2 (setting [2]) was 10 to 100 nM; against Tyk2 (MSD), 100 to 1000 nM.
On to `CC(=O)Nc1cc(Nc2cc(C)nc(C(C)(F)F)n2)c(-n2ccc(C)n2)cn1` [Example 597, N-(4-((2-(1,1-difluoroethyl)-6-methylpyrimidin-4-yl)amino)-5-(3-methyl-1H-pyrazol-1-yl)pyridin-2-yl)acetamide], for which the half-inhibitory concentration (IC50) on JH2 domain of human Tyk2 (setting [1]) was not above 10 nM; on Tyk2 (MSD) it was 10 to 100 nM.
